Experimental findings from patent US20050267126A1, “Compounds derived from aryl carbamates, preparation thereof and uses of same” (priority 2002, published 2005) are described below.

Structures are written as SMILES.

As a reminder, the Ki is the equilibrium dissociation constant of an inhibitor or competing ligand from its target.

T1 sequence (Q13639 1-378 isoform Q13639-5): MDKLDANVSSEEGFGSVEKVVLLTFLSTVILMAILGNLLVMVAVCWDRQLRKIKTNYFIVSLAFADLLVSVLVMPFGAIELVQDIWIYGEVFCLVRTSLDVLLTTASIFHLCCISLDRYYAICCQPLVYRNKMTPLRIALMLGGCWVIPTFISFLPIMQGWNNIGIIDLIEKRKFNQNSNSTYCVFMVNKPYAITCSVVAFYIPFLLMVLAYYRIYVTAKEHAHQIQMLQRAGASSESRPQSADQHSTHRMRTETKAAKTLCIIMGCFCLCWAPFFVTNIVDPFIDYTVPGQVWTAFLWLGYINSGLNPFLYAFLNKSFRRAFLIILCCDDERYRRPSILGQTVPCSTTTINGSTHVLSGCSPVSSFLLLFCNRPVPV

The assay concerns the target T1, human isoform h5-HT4e (Homo sapiens, UniProt Q13639).
T1 construct: expressed in transfected cells; host or cells: rat glial cells, stably expressing; membranes prepared from homogenized cells
The experiment in a line: displacement of radiolabelled ligand [3H]-GR113808, affinity constant Ki. The class given is binding. As to conditions: [3H]-GR113808 0.2 nM; membranes of rat glial cells stably expressing h5-HT4e; 25° C., 30 min. How it is done:
The compounds of the invention were evaluated by measuring their affinity constant Ki determined by displacement of a radiolabelled ligand [^3H]—GR113808 in rat glial cells stably expressing the human isoform h5-HT4e.
Confluent glial cells were washed twice with PBS and centrifuged at 300 g for 5 min. The pellet was used immediately and the cells were suspended in 10 volumes of HEPES (50 mM, pH 7.4, 4° C.) then homogenized in a teflon homogenizer and centrifuged at 40,000 g for 20 min. The pellet was again suspended in 15 volumes of HEPES. Binding displacement experiments were carried out in […] of 50 mM HEPES buffer containing 20 μl of the radiolabelled ligand [^3H]—GR113808 at a concentration of 0.2 nM for the isoform h5-HT4e or at a concentration equal to one-half the Kd of the radioligand for the other isoforms expressed in COS cells, 20 μl of competitor ligand at 7 different concentrations and 50 μl of membrane preparation (100-200 μg of protein determined by the Bradford method). Binding was carried out at 25° C. for 30 min and the reaction was stopped by rapid vacuum filtration (Brandel Harvester) on Whatman GF/B filters preincubated in 0.1% PEI to reduce nonspecific binding.
Membrane-bound radioactivity was retained on the filter, which was cut and washed with cold buffer (50 mM Tris-HCl, pH 7.4) and incubated overnight in 4 ml of scintillation fluid. Radioactivity was measured in a liquid scintillation counter (Beckmann LS 6500C). Binding data were obtained by computer-assisted linear regression. (Graph Prism Program, Graph Pad Software. Inc., San Diego, Calif.)
`CCOc1ccccc1NC(=O)OCCN1CCN(c2cccc(C(=O)N(C)CCN(C)C)c2)CC1` [Example 105, 2-(4-{3-[(2-dimethylamino-ethyl)-methyl-carbamoyl]-phenyl}-piperazin-1-yl)-ethyl N-(2-ethoxy-phenyl)-carbamate] yielded a Ki of 750 pM.
To `CCOc1ccccc1NC(=O)OCCN1CCN(c2cccc(NC(=O)CCN)c2)CC1` [Example 42, 2-{4-[3-(3-amino-propionylamino)-phenyl]-piperazin-1-yl}-ethyl-N-(2-ethoxy-phenyl)carbamate] belongs 170 pM.
Consider `CCOc1ccccc1NC(=O)OCCN1CCN(c2cccc(NC(=O)N3CCC(N4CCCC4)CC3)c2)CC1` [Example 59, 2-(4-{3-[(4-pyrrolidin-1-yl-piperidine-1-carbonyl)-amino]-phenyl}-piperazin-1-yl)-ethyl-N-(2-ethoxy-phenyl)carbamate], for which affinity was put at a Ki of 240 pM.
As to `CCOc1ccccc1NC(=O)OCCN1CCN(c2cccc(NC(=O)NCC3CCCN3CC)c2)CC1` (centres unmarked) [Example 57, 2-(4-{3-[3-(1-ethyl-pyrrolidin-2-ylmethyl)-ureido]-phenyl}-piperazin-1-yl)-ethyl-N-(2-ethoxy-phenyl)carbamate], the inhibition constant Ki was found to be 90 pM.
Turning to `CCOc1ccccc1NC(=O)OCCN1CCN(c2cccc(NC(=O)C3=CCCN(C)C3)c2)CC1` [Example 21, 2-(4-{3-[(1-methyl-1,2,5,6-tetrahydro-pyridine-3-carbonyl)-amino]-phenyl}-piperazin-1-yl)-ethyl-N-(2-ethoxy-phenyl)carbamate], the Ki was 130 pM.
`CCOc1ccccc1NC(=O)OCCN1CCN(c2cccc(NC(=O)C(N)Cc3ccc(O)cc3)c2)CC1` (centres unmarked) [Example 44, 2-(4-{3-[2-amino-3-(4-hydroxy-phenyl)-propionylamino]-phenyl}-piperazin-1-yl)-ethyl-N-(2-ethoxy-phenyl)carbamate] registered an inhibition constant Ki of 180 pM.
Take `CCOc1ccccc1NC(=O)OCCN1CCN(c2cccc(C(=O)NCCN3CCCCC3)c2)CC1` [Example 78, 2-(4-{3-[2-piperidin-1-yl-ethylcarbamoyl]-phenyl}-piperazin-1-yl)-ethyl-N-(2-ethoxy-phenyl)carbamate]: the Ki was 160 pM.
`CCOc1ccccc1NC(=O)OCCN1CCN(c2cccc(NC(=O)NCCCN3CCN(C)CC3)c2)CC1` [Example 60, 2-[4-(3-{3-[3-(4-methyl-piperazin-1-yl)-propyl]-ureido}-phenyl)-piperazin-1-yl]-ethyl-N-(2-ethoxy-phenyl)carbamate] showed a Ki of 200 pM.
